Target: T1, Squalene synthase (Rattus norvegicus, UniProt Q02769)
T1 sequence (Q02769 whole entry): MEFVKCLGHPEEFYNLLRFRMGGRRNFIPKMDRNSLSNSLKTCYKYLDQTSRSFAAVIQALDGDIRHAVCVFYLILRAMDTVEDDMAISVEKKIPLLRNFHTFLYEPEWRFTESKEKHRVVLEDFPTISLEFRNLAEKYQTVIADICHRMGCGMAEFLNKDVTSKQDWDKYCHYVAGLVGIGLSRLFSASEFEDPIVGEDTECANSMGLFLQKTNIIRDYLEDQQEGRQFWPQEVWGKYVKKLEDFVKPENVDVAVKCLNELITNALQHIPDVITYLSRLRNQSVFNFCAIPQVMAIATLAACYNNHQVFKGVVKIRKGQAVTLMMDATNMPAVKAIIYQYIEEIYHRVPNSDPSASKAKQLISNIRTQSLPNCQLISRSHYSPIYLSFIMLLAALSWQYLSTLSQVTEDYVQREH
Experiment: Inhibition of squalene synthetase was determined in rat liver microsomes
Parameters: species or system Microsome
Settings: read-out: I50

SMILES	IC50
CC(C)=CCC/C(C)=C/CC/C(C)=C/CCP(=O)(O)CP(=O)(O)O	31.5 µM
CC(C)=CCC/C(C)=C/CC/C(C)=C/CCP(=O)(O)C(F)(F)P(=O)(O)O	29.9 µM
COP(=O)(O)CP(=O)(O)CC/C=C(\C)CC/C=C(\C)CCC=C(C)C	177 µM

More lines, in order of falling IC50, values ahead:

IC50	SMILES
67 µM	CC(C)=CCC/C(C)=C/CC/C(C)=C/CCCP(=O)(O)CP(=O)(O)O
42 µM	CC(C)=CCC/C(C)=C/CC/C(C)=C/CCP(=O)(O)OP(=O)(O)O
15.5 µM	CC(C)=CCC/C(C)=C/CC/C(C)=C/C=C/P(=O)(O)C(F)(F)P(=O)(O)O
12.2 µM	CC(C)=CCC/C(C)=C/CC/C(C)=C/C=C/P(=O)(O)CP(=O)(O)O

— ChEMBL document CHEMBL1123968, “Isoprenoid (phosphinylmethyl)phosphonates as inhibitors of squalene synthetase” (J Med Chem, 1988)
